Reference: patent US20260022142A1, “MACROCYCLIC IMMUNOMODULATORS” (Bristol-Myers Squibb Company, priority 2022, published 2026)
Numbered stars: 1 amine (or outer) side, 2 acyl side, 3 side chain; on linkers, the order of the positions; unused ones are H or OH. Bridge positions count the residues as written; N and C are the ends. Square brackets hold non-standard residues; d marks the D form. Peptide text beside a SMILES is read from it. * marks the point of attachment. ξ: configuration not given here. Phe(3-CF3) = N[C@@H](Cc1cccc(C(F)(F)F)c1)C(=O)O; Phe(4-COOH) = N[C@@H](Cc1ccc(C(=O)O)cc1)C(=O)O; d(γGlu) = O=C(O)[C@@H](CCC(=O)[*:2])N[*:1]; Bip = N[C@@H](Cc1ccc(-c2ccccc2)cc1)C(=O)O; NH(CH2)14COOH = O=C(O)CCCCCCCCCCCCCCN*; γGlu = O=C(O)[C@H](CCC(=O)[*:2])N[*:1]; NH(CH2)12COOH = O=C(O)CCCCCCCCCCCCN*; Val(3-OH) = CC(C)(O)[C@H](N)C(=O)O; Cha = N[C@@H](CC1CCCCC1)C(=O)O; aThr = C[C@H](O)[C@H](N)C(=O)O; Thr(3ξ) = CC(O)[C@H](N)C(=O)O; Dap(Me) = CNC[C@H](N)C(=O)O; dDab = NCC[C@@H](N)C(=O)O; Carboxymethyl = O=C(O)C*; Orn = NCCC[C@H](N)C(=O)O; Dab = NCC[C@H](N)C(=O)O; AEEA = NCCOCCOCC(=O)O

Target: T1, PD-1/PD-L1 interaction (PE-labeled human PD-L1-Ig binding to Jurkat cell line over-expressing human PD-1) (Homo sapiens, UniProt Q15116)
T1 construct: expressed in transfected cells; host or cells: Jurkat
T1 sequence (Q15116 25-288): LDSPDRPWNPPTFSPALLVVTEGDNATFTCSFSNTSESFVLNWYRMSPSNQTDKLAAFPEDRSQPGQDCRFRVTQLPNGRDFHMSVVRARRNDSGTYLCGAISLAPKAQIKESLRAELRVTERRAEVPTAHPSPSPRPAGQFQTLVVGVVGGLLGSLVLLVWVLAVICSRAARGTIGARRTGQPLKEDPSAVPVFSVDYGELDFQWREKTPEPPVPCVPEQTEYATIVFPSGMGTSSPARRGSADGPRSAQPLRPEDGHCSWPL
Test: Jurkat-PD-1 Cell Binding High-Content Screening Assay (CBA)
Type: cell-based
Conditions: Jurkat cell line over-expressing human PD-1; PE-labeled PD-L1-Ig 20 nM final; read-out: Jurkat hPD1-PDL1 IC50
Method in brief: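 Human PD-L1-Ig carrying a covalent PE label on its Ig tag serves as the probe, applied at 20 nM final to compound-treated (2 h, 37° C) Jurkat-hPD-1 cells in medium with 10% fetal calf serum. After one hour, fixation and nuclear staining precede high-content image analysis.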

IC50 [nM]	Compound
27.4	CC(=O)NCCCC[C@@H]1NC(=O)[C@H](C(C)(C)O)NC(=O)[C@H](CC2CCCCC2)NC(=O)[C@H](CCN)NC(=O)[C@@H](CC(C)C)NC(=O)[C@H](CCCN)NC(=O)[C@H](Cc2ccc(OCC(=O)O)cc2)NC(=O)[C@H](Cc2ccc(-c3ccccc3)cc2)NC(=O)[C@H](Cc2ccc(C(=O)O)cc2)NC(=O)[C@H](Cc2cccc(C(F)(F)F)c2)NC(=O)[C@H](CC(=O)O)NC(=O)[C@H](Cc2ccc(OCC(=O)O)cc2)NC(=O)[C@H]([C@H](C)O)NC(=O)CSC[C@@H](C(=O)N[C@H](CCN)C(=O)NCCOCCOCC(=O)N[C@@H](CCC(=O)NCCOCCOCC(=O)NCCCCCCCCCCCCC(=O)O)C(=O)O)NC1=O [Compound 3899] ({CH2CO}-[aThr]Y(Carboxymethyl)D[Phe(3-CF3)][Phe(4-COOH)][Bip]Y(Carboxymethyl)[Orn][dL][Dab][Cha][Val(3-OH)]K(Ac)C[dDab][AEEA][γGlu][AEEA]-{NH(CH2)12COOH}; thioether N-14)
185	CC(C)C[C@H]1NC(=O)[C@H](CCCN)NC(=O)[C@H](Cc2ccc(C(=O)O)cc2)NC(=O)[C@H](Cc2ccc(-c3ccccc3)cc2)NC(=O)[C@H](Cc2ccc(C(=O)O)cc2)NC(=O)[C@H](Cc2cccc(C(F)(F)F)c2)NC(=O)[C@H](CC(=O)O)NC(=O)[C@H](Cc2ccc(OCC(=O)O)cc2)NC(=O)[C@H](CO)NC(=O)CSC[C@@H](C(=O)N[C@@H](CCN)C(=O)NCCOCCOCC(=O)N[C@@H](CO)C(=O)N[C@@H](CO)C(=O)N[C@@H](CO)C(=O)N[C@@H](CO)C(=O)N[C@@H](CCC(=O)NCCCCCCCCCCCCCCC(=O)O)C(=O)O)NC(=O)[C@H](CO)NC(=O)[C@H](C(C)(C)O)NC(=O)[C@H](CC2CCCCC2)NC(=O)[C@H](CCN)NC1=O [Compound 3900] ({CH2CO}-SY(Carboxymethyl)D[Phe(3-CF3)][Phe(4-COOH)][Bip][Phe(4-COOH)][Orn][dL][Dab][Cha][Val(3-OH)]SC[Dab][AEEA]SSSSE(NH(CH2)14COOH)-OH; thioether N-14)
173	CNC[C@@H]1NC(=O)CSC[C@@H](C(=O)N[C@@H](CCN)C(=O)NCCOCCOCC(=O)N[C@@H](CO)C(=O)N[C@@H](CO)C(=O)N[C@@H](CO)C(=O)N[C@@H](CO)C(=O)N[C@@H](CCC(=O)NCCCCCCCCCCCCCCC(=O)O)C(=O)O)NC(=O)[C@H](Cc2cnc[nH]2)NC(=O)[C@H](C(C)(C)O)NC(=O)[C@H](CC2CCCCC2)NC(=O)[C@H](CCN)NC(=O)[C@@H](CC(C)C)NC(=O)[C@H](CCCN)NC(=O)[C@H](Cc2ccc(C(=O)O)cc2)NC(=O)[C@H](Cc2ccc(-c3ccccc3)cc2)NC(=O)[C@H](Cc2ccc(C(=O)O)cc2)NC(=O)[C@H](Cc2cccc(C(F)(F)F)c2)NC(=O)[C@H](CC(=O)O)NC(=O)[C@H](Cc2ccc(OCC(=O)O)cc2)NC1=O [Compound 3901] ({CH2CO}-[Dap(Me)]Y(Carboxymethyl)D[Phe(3-CF3)][Phe(4-COOH)][Bip][Phe(4-COOH)][Orn][dL][Dab][Cha][Val(3-OH)]HC[Dab][AEEA]SSSSE(NH(CH2)14COOH)-OH; thioether N-14)
67.2	CC(C)C[C@H]1NC(=O)[C@H](CCCN)NC(=O)[C@H](Cc2ccc(OCC(=O)O)cc2)NC(=O)[C@H](Cc2ccc(-c3ccccc3)cc2)NC(=O)[C@H](Cc2ccc(C(=O)O)cc2)NC(=O)[C@H](Cc2cccc(C(F)(F)F)c2)NC(=O)[C@H](CC(=O)O)NC(=O)[C@H](Cc2ccc(OCC(=O)O)cc2)NC(=O)[C@H](C(C)O)NC(=O)CSC[C@@H](C(=O)N[C@@H](CCN)C(=O)NCCOCCOCC(=O)N[C@@H](CCC(=O)NCCOCCOCC(=O)NCCCCCCCCCCCCC(=O)O)C(=O)O)NC(=O)[C@H](CCC(=O)O)NC(=O)[C@H](C(C)C)NC(=O)[C@H](CC2CCCCC2)NC(=O)[C@H](CCN)NC1=O (stereo partly drawn) [Compound 3902] ({CH2CO}-[Thr(3ξ)]Y(Carboxymethyl)D[Phe(3-CF3)][Phe(4-COOH)][Bip]Y(Carboxymethyl)[Orn][dL][Dab][Cha]VEC[Dab][AEEA][γGlu][AEEA]-{NH(CH2)12COOH}; thioether N-14)
49.7	CNC[C@@H]1NC(=O)CSC[C@@H](C(=O)N[C@@H](CCN)C(=O)NCCOCCOCC(=O)N[C@@H](CCC(=O)NCCOCCOCC(=O)NCCCCCCCCCCCCC(=O)O)C(=O)O)NC(=O)[C@H](CO)NC(=O)[C@H](C(C)(C)O)NC(=O)[C@H](CC2CCCCC2)NC(=O)[C@H](CCN)NC(=O)[C@@H](CC(C)C)NC(=O)[C@H](CCCN)NC(=O)[C@H](Cc2ccc(C(=O)O)cc2)NC(=O)[C@H](Cc2ccc(-c3ccccc3)cc2)NC(=O)[C@H](Cc2ccc(C(=O)O)cc2)NC(=O)[C@H](Cc2cccc(C(F)(F)F)c2)NC(=O)[C@H](CC(=O)O)NC(=O)[C@H](Cc2ccc(OCC(=O)O)cc2)NC1=O [Compound 3903] ({CH2CO}-[Dap(Me)]Y(Carboxymethyl)D[Phe(3-CF3)][Phe(4-COOH)][Bip][Phe(4-COOH)][Orn][dL][Dab][Cha][Val(3-OH)]SC[Dab][AEEA][γGlu][AEEA]-{NH(CH2)12COOH}; thioether N-14)
38.1	CC(C)C[C@H]1NC(=O)[C@H](CCCN)NC(=O)[C@H](Cc2ccc(OCC(=O)O)cc2)NC(=O)[C@H](Cc2ccc(-c3ccccc3)cc2)NC(=O)[C@H](Cc2ccc(C(=O)O)cc2)NC(=O)[C@H](Cc2cccc(C(F)(F)F)c2)NC(=O)[C@H](CC(=O)O)NC(=O)[C@H](Cc2ccc(OCC(=O)O)cc2)NC(=O)[C@H](Cc2ccc(OCC(=O)O)cc2)NC(=O)CSC[C@@H](C(=O)N[C@@H](CCN)C(=O)NCCOCCOCC(=O)N[C@H](CCC(=O)NCCOCCOCC(=O)NCCCCCCCCCCCCC(=O)O)C(=O)O)NC(=O)[C@H](CO)NC(=O)[C@H](C(C)(C)O)NC(=O)[C@H](CC2CCCCC2)NC(=O)[C@H](CCN)NC1=O [Compound 3904] ({CH2CO}-Y(Carboxymethyl)Y(Carboxymethyl)D[Phe(3-CF3)][Phe(4-COOH)][Bip]Y(Carboxymethyl)[Orn][dL][Dab][Cha][Val(3-OH)]SC[Dab][AEEA][d(γGlu)][AEEA]-{NH(CH2)12COOH}; thioether N-14)
38.4	CNC[C@@H]1NC(=O)CSC[C@@H](C(=O)N[C@@H](CCN)C(=O)NCCOCCOCC(=O)N[C@@H](CCC(=O)NCCOCCOCC(=O)NCCCCCCCCCCCCC(=O)O)C(=O)O)NC(=O)[C@H](CO)NC(=O)[C@H](C(C)(C)O)NC(=O)[C@H](CC2CCCCC2)NC(=O)[C@H](CCN)NC(=O)[C@@H](CC(C)C)NC(=O)[C@H](CCCN)NC(=O)[C@H](Cc2ccc(OCC(=O)O)cc2)NC(=O)[C@H](Cc2ccc(-c3ccccc3)cc2)NC(=O)[C@H](Cc2ccc(OCC(=O)O)cc2)NC(=O)[C@H](Cc2cccc(C(F)(F)F)c2)NC(=O)[C@H](CC(=O)O)NC(=O)[C@H](Cc2ccc(OCC(=O)O)cc2)NC1=O [Compound 3905] ({CH2CO}-[Dap(Me)]Y(Carboxymethyl)D[Phe(3-CF3)]Y(Carboxymethyl)[Bip]Y(Carboxymethyl)[Orn][dL][Dab][Cha][Val(3-OH)]SC[Dab][AEEA][γGlu][AEEA]-{NH(CH2)12COOH}; thioether N-14)
